The results in this text go back to publication PMC2864305 (Biochemistry, 2010).

Structures are written as SMILES.

The target in the test is T1, RePC (Rhizobium etli pyruvate carboxylase) (Rhizobium etli, UniProt Q2K340).
T1 sequence (Q2K340 1-1154): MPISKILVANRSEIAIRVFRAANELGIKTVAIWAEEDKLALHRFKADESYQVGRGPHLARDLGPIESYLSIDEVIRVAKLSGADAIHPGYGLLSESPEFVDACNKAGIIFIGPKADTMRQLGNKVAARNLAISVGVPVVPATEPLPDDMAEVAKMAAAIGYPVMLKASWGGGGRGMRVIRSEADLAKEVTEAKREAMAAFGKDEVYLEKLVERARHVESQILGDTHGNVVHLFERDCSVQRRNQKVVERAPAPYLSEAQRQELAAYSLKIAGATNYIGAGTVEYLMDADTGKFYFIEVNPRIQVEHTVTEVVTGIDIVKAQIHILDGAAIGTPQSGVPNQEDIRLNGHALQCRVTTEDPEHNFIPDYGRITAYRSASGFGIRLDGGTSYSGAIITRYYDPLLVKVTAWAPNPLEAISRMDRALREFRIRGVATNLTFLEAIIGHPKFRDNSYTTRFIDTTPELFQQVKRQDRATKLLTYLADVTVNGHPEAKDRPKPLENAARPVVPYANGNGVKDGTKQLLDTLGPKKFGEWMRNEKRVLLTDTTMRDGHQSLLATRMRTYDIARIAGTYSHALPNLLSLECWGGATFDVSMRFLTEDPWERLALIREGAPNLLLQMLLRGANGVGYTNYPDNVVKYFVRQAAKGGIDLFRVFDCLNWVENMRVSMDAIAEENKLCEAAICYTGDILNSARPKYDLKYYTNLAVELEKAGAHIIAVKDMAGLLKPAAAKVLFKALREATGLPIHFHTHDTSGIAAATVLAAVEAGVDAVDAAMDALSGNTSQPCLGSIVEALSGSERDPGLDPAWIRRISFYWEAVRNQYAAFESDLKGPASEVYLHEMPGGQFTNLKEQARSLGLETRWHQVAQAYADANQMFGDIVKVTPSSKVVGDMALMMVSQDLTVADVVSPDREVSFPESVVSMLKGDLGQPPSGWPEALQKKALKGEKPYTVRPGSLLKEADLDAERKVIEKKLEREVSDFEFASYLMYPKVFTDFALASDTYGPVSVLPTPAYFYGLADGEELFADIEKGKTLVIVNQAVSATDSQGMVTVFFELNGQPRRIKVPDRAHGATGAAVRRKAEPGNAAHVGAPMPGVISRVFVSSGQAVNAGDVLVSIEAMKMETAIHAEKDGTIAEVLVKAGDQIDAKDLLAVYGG
The test is classed as biochemical. Particulars: read-out: % inhibition at 20 mM.

By inhibition is commonly meant how much of the control response was suppressed. Turning to `NC(=O)C(=O)O` [oxamate], the inhibition at 20000 µM stood at 68%.
